Data as given in patent US20220370416A1, “COMPOUNDS AND METHODS FOR TARGETED DEGRADATION OF KRAS” (Arvinas Operations, Inc., priority 2020, published 2022).

Columns and labels:
HiBit-KRAS^G12C [1] = target: T1, HiBit-KRAS^G12C (Homo sapiens, UniProt P01116, G12C); assay: HiBit degradation assay in MiaPaCa-2 HiBit-KRas^G12C cells; type: cell-based; conditions: 0.5% DMSO, 24 hours; for Dmax: MIA PaCa-2, MiaPaCa-2 HiBit-KRas^G12C cells, maximum degradation, read-out: KRas^G12C-HiBiT (MiaPaCa; 0.5% DMSO) DMax; for DC50: read-out: KRas^G12C-HiBiT (MiaPaCa; 0.5% DMSO) IC50, MiaPaCa-2 HiBit-KRas^G12C cells
In short: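 DC50 and Dmax come from 4-parameter fits of DMSO-normalized HiBit luminescence after 24 hours' exposure at 37° C to 10 μM–20 nM compound in 0.1% or 0.5% DMSO. Cells: MiaPaCa-2 carrying one endogenously HiBit-tagged KRAS^G12C allele; concentrations causing ≥50% […] viability loss (alamar blue) excluded.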

HiBit-KRAS^G12C [2] = target: T1, HiBit-KRAS^G12C; assay: HiBit degradation assay in SW1573 HiBit-KRas^G12C cells; type: cell-based; set-up: expressed in transfected cells; host or cells: SW1573 (clone E6), modified pcDNA3.1 vector, TK promoter; conditions: 0.5% DMSO, 24 hours; for Dmax: SW1573, SW1573 HiBit-KRas^G12C, read-out: KRas^G12C-HiBiT (SW1573; 0.5% DMSO) Dmax**; for DC50: read-out: KRas^G12C-HiBiT (SW1573; 0.5% DMSO) IC50***, SW1573 HiBit-KRas^G12C
In short: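 HiBit-KRAS G12C degradation was measured after a 24 h compound exposure (titrated 10 μM–20 nM) in engineered SW1573 cells. Lytic HiBit luminescence, expressed relative to DMSO controls, yielded DC50 and Dmax from 4-parameter fits. Concentrations causing ≥50% loss in alamar blue viability were omitted as cytotoxic.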

T1 sequence (P01116 1-186 isoform P01116-2 G12C limits assumed): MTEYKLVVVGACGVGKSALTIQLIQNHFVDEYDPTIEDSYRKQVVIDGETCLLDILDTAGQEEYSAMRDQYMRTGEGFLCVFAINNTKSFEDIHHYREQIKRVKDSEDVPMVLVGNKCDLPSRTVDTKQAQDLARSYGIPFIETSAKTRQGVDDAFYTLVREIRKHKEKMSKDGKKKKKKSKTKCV

## C=CC(=O)N1CCN(c2nc(OCCN3CCC(COCC(=O)N[C@H](C(=O)N4C[C@H](O)C[C@H]4C(=O)N[C@@H](C)c4ccc(-c5scnc5C)cc4)C(C)(C)C)CC3)nc3c(F)c(-c4nc(NC)cc5ccccc45)c(Cl)cc23)C[C@@H]1CC#N [Compound 99, (2S,4R)-1-[(2S)-2-[2-({1-[2-({6-chloro-4-[(3S)-3-(cyanomethyl)-4-(prop-2-enoyl)piperazin-1-yl]-8-fluoro-7-[3-(methylamino)isoquinolin-1-yl]quinazolin-2-yl}oxy)ethyl]piperidin-4-yl}methoxy)acetamido]-3,3-dimethylbutanoyl]-4-hydroxy-N-[(1S)-1-[4-(4-methyl-1,3-thiazol-5-yl)phenyl]ethyl]pyrrolidine-2-carboxamide]
HiBit-KRAS^G12C [1]
  Dmax: > 70%
  DC50: > 1000 nM
HiBit-KRAS^G12C [2]
  Dmax: > 70%
  DC50: > 1000 nM

## C=CC(=O)N1CCN(c2nc(OC[C@@H]3CCCN3CCCCOCC(=O)N[C@H](C(=O)N3C[C@H](O)C[C@H]3C(=O)N[C@@H](C)c3ccc(-c4scnc4C)cc3)C(C)(C)C)nc3c(F)c(-c4cc(O)cc5ccccc45)c(Cl)cc23)C[C@@H]1CC#N [Compound 100, (2S,4R)-1-[(2S)-2-(2-{4-[(2S)-2-[({6-chloro-4-[(3S)-3-(cyanomethyl)-4-(prop-2-enoyl)piperazin-1-yl]-8-fluoro-7-(3-hydroxynaphthalen-1-yl)quinazolin-2-yl}oxy)methyl]pyrrolidin-1-yl]butoxy}acetamido)-3,3-dimethylbutanoyl]-4-hydroxy-N-[(1S)-1-[4-(4-methyl-1,3-thiazol-5-yl)phenyl]ethyl]pyrrolidine-2-carboxamide]
HiBit-KRAS^G12C [1]
  Dmax: < 35%
  DC50: > 1000 nM
HiBit-KRAS^G12C [2]
  Dmax: < 35%
  DC50: 100 to 1000 nM

## C=CC(=O)N1CCN(c2nc(OCCN3CCC(COCC(=O)N[C@H](C(=O)N4C[C@H](O)C[C@H]4C(=O)N[C@@H](C)c4ccc(-c5scnc5C)cc4)C(C)(C)C)CC3)nc3c(F)c(-c4cc(O)cc(C)c4C)c(Cl)cc23)C[C@@H]1CC#N [Compound 102, (2S,4R)-1-[(2S)-2-[2-({1-[2-({6-chloro-4-[(3S)-3-(cyanomethyl)-4-(prop-2-enoyl)piperazin-1-yl]-8-fluoro-7-(5-hydroxy-2,3-dimethylphenyl)quinazolin-2-yl}oxy)ethyl]piperidin-4-yl}methoxy)acetamido]-3,3-dimethylbutanoyl]-4-hydroxy-N-[(1S)-1-[4-(4-methyl-1,3-thiazol-5-yl)phenyl]ethyl]pyrrolidine-2-carboxamide]
HiBit-KRAS^G12C [1]
  Dmax: > 70%
  DC50: 100 to 1000 nM
HiBit-KRAS^G12C [2]
  Dmax: > 70%
  DC50: 100 to 1000 nM

## C=CC(=O)N1CCN(c2nc(OCCN3CCC(COCC(=O)N[C@H](C(=O)N4C[C@H](O)C[C@H]4C(=O)N[C@@H](C)c4ccc(-c5scnc5C)cc4)C(C)(C)C)CC3)nc3c(F)c(-c4nc(N)cc5ccccc45)c(Cl)cc23)C[C@@H]1CC#N [Compound 111]
HiBit-KRAS^G12C [1]
  Dmax: 35 to 70%
  DC50: 100 to 1000 nM
HiBit-KRAS^G12C [2]
  Dmax: 35 to 70%
  DC50: 100 to 1000 nM

## C=CC(=O)N1CCN(c2nc(N3CCN(C[C@H]4C[C@H](OCC(=O)N[C@H](C(=O)N5C[C@H](O)C[C@H]5C(=O)N[C@@H](C)c5ccc(-c6scnc6C)cc5)C(C)(C)C)C4)CC3)nc3c(F)c(-c4cc(O)cc5ccccc45)c(Cl)cc23)C[C@@H]1CC#N [Compound 114, (2S,4R)-1-[(2S)-3,3-dimethyl-2-{2-[(1r,3r)-3-[(4-{6-chloro-4-[(3S)-3-(cyanomethyl)-4-(prop-2-enoyl)piperazin-1-yl]-8-fluoro-7-(3-hydroxynaphthalen-1-yl)quinazolin-2-yl}piperazin-1-yl)methyl]cyclobutoxy]acetamido}butanoyl]-4-hydroxy-N-[(1S)-1-[4-(4-methyl-1,3-thiazol-5-yl)phenyl]ethyl]pyrrolidine-2-carboxamide]
HiBit-KRAS^G12C [1]
  Dmax: < 35%
  DC50: 100 to 1000 nM
HiBit-KRAS^G12C [2]
  Dmax: 35 to 70%
  DC50: 100 to 1000 nM
